Reference: patent EP0429987B1, “5,11-Dihydro-6H-dipyrido[3,2-b:2',3'-e] [1,4]diazepines and their use in the prevention or treatment of HIV infection” (priority 1989, dated 1991)

Assays:
HIV-1 RT = biological target: T1, HIV-1 RT (Human immunodeficiency virus type 1 group M subtype B, UniProt P03367); test: Reverse Transcriptase (RT) Assay: inhibition of RNA-dependent DNA polymerase activity; format: biochemical; conditions: for inhibition at 10 µg/mL: read-out: RT Assay % inhibition @ 10 µg/ml; for inhibition at 1.25 µM: @ 1.25µM (footnote +)
T1 construct: Reverse transcriptase enzyme from the LAV strain of Human Immunodeficiency Virus (HIV-1) (1) was isolated; made in house; host or cells: E. coli JM109, clone pBRTprtl+ in vector pIBI21 (lac promoter, IPTG induction)
Text: Utilizing the Reverse Transcriptase (RT) Assay described below, compounds can be tested for their ability to inhibit the RNA-dependent DNA polymerase activity of HIV-1 RT.
Among the enzymes for which Human Immunodeficiency Virus (HIV-1) encodes is a reverse transcriptase (1), so-named because it transcribes a DNA copy from an RNA template. This activity can be quantitatively measured in a cell-free enzyme assay, which has been previously described (2), and is based upon the observation that reverse transcriptase is able to use a synthetic template [poly r(C) primed with oligo d(G)] to transcribe a radio-labelled, acid-precipitable DNA strand utilizing ^3H-dGTP as a substrate.
Reverse transcriptase enzyme from the LAV strain of Human Immunodeficiency Virus (HIV-1) (1) was isolated from the bacterial strain JM109 (3) expressing the DNA clone pBRTprtl+ (2) which is under the control of the lac promotor in the expression vector pIBI21 (4). An overnight culture grown in 2XYT medium (37°C, 225 rpm) (5) supplemented with 100 µg/ml ampicillin for positive selection is inoculated at a 1:40 dilution into M9 medium supplemented with 10µg/ml thiamine, 0.5% casamino acids, and 50 µg/ml ampicillin (5). The culture is incubated (37°C, 225 rpm) until it reaches an OD540 of 0.3-0.4. At that time the repressor inhibitor IPTG (isopropyl β-D-thiogalactopyranoside) is added to 0.5mM, and the mixture is incubated for 2 additional hours. Bacteria are pelleted, resuspended in a 50mM Tris, 0.6mM EDTA, 0.375M NaCl buffer and digested by the addition of lysozyme (1mg/ml) for 30 minutes on ice. The cells are lysed by the addition of 0.2% NP-40 and brought to 1M NaCl.
After removal of the insoluble debris by centrifugation, the protein is precipitated by the addition of 3 volumes of saturated aqueous ammonium sulfate. The enzyme is pelleted, resuspended in RT buffer (50mM Tris pH 7.5, 1mM EDTA, 5mM DTT, 0.1% NP-40, 0.1M NaCl, and 50% glycerol), and stored at -70°C for further use.
The 2X concentrated stock reaction mixture is aliquoted and stored at -20°C. […] This enzyme assay has been adapted to a 96 well microtiter plate system, and has been previously described (6). Tris buffer (50 mM, pH 7.4), vehicle (solvent diluted to match the compound dilution), or compounds in vehicle are dispensed into 96-well microtiter plates (10µl/well; 3 wells/ compound). The HIV-1 RT enzyme is thawed, diluted in 50mM Tris pH 7.4 so that fifteen µl of diluted enzyme contain 0.001 Unit (one unit is that amount of enzyme to transform 1 micromole of substrate per minute at 25°C), and fifteen µl are dispensed per well. Twenty µl of 0.12-0.5M EDTA are added to the first three wells of the microtiter plate. EDTA chelates the Mg^++ present and prevents reverse transcription. This group serves as background polymerization which is subtracted from all other groups. Twenty-five µl of the 2X reaction mixture are added to all wells and the assay is allowed to incubate at room temperature for 60 minutes. The assay is terminated by precipitating the DNA in each well with 50µl of 10% trichloracetic acid (TCA) (10% w/v) in sodium pyrophosphate (1% w/v). The microtiter plate is incubated for 15 minutes at 4°C and the precipitate is fixed onto #30 glass fiber paper (Schleicher & Schuell) using a Skatron semi-automatic harvester. The filters are then washed with additional TCA (5%) containing sodium pyrophosphate (1%), rinsed with aqueous ethanol (70%), dried, and transferred to scintillation vials (6). Each vial receives 2 mls of scintillation cocktail and is counted in a Beckman beta counter.
The calculation for percent inhibition is as follows: %inhibition =(CPM Mean Test Value - CPM Mean Control Value X100)/(CPM Mean Control Value) [formula]

[1] = tested on: HTLV-IIIB strain of HIV-1; test: Human T-Cell Culture Assay: inhibition of syncytia formation in c8166 cells; format: cell-based; conditions: Human immunodeficiency virus 1, IIIB, 96 h, four days after virus challenge
Method: In order to confirm that compounds which are active in the RT Assay also have the ability to inhibit HIV replication in a living system, compounds according to the invention were also tested in the human T-Cell Culture Assay described below.
Assay Theory: Formation of syncytia is a feature of in vitro cultures of CD4+ T-cells infected with HIV-1. In this assay, T-cells are treated with a putative replication inhibiting compound and then infected with HIV-1. After incubation, the culture is checked for the formation of syncytia. The absence or reduction in the number of syncytia is used as a measure of the test compound's ability to inhibit HIV replication.
Assay Method: The target cells, designated c8166, are a sub-clone of human lymphoma cells of T-cell origin and are established at an initial density of 5x10^4 per 100 ul in RPMI 1640 (+ 10% fetal bovine serum) culture medium in 96 well flat bottom plates. A selected amount of test compound, dissolved in DMSO, is included. After 24 hours, 50-100 TCID50's (the dose that results in induced effect in 50% of test cultures) of the HTLV-IIIB strain of HIV-1 (2) are inoculated into each culture. Control cultures receive compound or virus only. Four days after virus challenge, cultures are visually examined for the frequency and distribution of virus-induced giant cell syncytia. The percent inhibition by the test compound is determined by comparison with control values. Confirmation of the presence or absence of virus replication is accomplished by harvesting the cell free culture fluids from all experimental groups to determine the presence or absence of infectious progeny through the induction of syncytia formation in secondary human T-cell cultures after 3 days.

[2] = MTT Assay for Cellular Cytotoxicity; conditions: human, h9 cells
Method: In order to roughly assess the cytotoxicity of the compounds provided by the invention, several such compounds were tested in the MTT Cellular Cytotoxicity Assay described below.
The MTT [3-(4,5-dimethylthiazol-2-yl)-2,5 diphenyl tetrazolium bromide) assay is based on cleavage of tetrazolium bromide by metabolically active cells, resulting in a highly quantitative blue color. This assay has been previously described (1) but has been optimized for the purposes of the testing reported herein.
The H9 cell line (2), an established human lymphoma suspension cell line grown in RPMI 1640 supplemented with 10% fetal bovine serum, is used as the target cell line in the assay. Cells (100 µl) are plated in microtest plate wells at a concentration of 10^5 cells per ml in the presence of varying concentrations of inhibitor. The cells are incubated at 37°C in a humidified CO2 incubator. Five days later, 20µl of MTT (5mg/ml in RPMI 1640, sonicated, 0.2 micron filtered, and stored at 4°C) is added to each well. After 4 hours additional incubation at 37°C, 60µl of Triton-X is added to each well and thoroughly mixed to aid the solubilization of the crystals. Absolute ethanol (5µl) is added to each well and the resulting mixture is incubated for 30 minutes at 60°C and immediately read on a plate reader (Dynatech) at a wavelength of 570nm.
Data from this assay are used to generate a nonlinear regression analysis which yields an EC50.

CCN1c2ncccc2C(=O)Nc2c(C)ccnc21 [Example 2, 5,11-Dihydro-11-ethyl-4-methyl-6H-dipyrido-[3,2-b:2',3'-e][1,4]diazepin-6-one]
inhibition at 10 µg/mL (HIV-1 RT): 100% | inhibition at 3 µg/mL [1]: 100% | CC50 at 120 h [2]: 200 µM

Cc1ccnc2c1NC(=O)c1cccnc1N2C1CC1 [Example 3, 11-Cyclopropyl-5,11-dihydro-4-methyl-6H-dipyrido[3,2-b:2',3'-e][1,4]diazepin-6-one]
RT Assay % inhibition @ 10 µg/ml (HIV-1 RT; @ 10 µg/ml): 100% | inhibition at 3 µg/mL [1]: 100% | CC50 at 120 h [2]: 250 µM

CCN1c2ncccc2C(=O)N(C)c2ccc(N3CCCC3)nc21 [Example 6, 5,11-Dihydro-11-ethyl-5-methyl-2-(N-pyrrolidino)-6H-dipyrido[3,2-b:2',3'-e][1,4]diazepin-6-one]
inhibition at 1.25 µM (HIV-1 RT): 91% | inhibition at 3 µg/mL [1]: 100% | CC50 at 120 h [2]: 45 µM

CCN1c2ncccc2C(=O)Nc2c(C)cc(OC)nc21 [Example 7, 5,11-Dihydro-11-ethyl-2-methoxy-4-methyl-6H-dipyrido[3,2-b:2',3'-e][1,4]diazepin-6-one]
inhibition at 1.25 µM (HIV-1 RT): 96% | inhibition at 3 µg/mL [1]: 100% | CC50 at 120 h [2]: 350 µM

CCN1c2ncccc2NC(=O)c2cccnc21 [Example 14]
inhibition at 10 µg/mL (HIV-1 RT): 99% | inhibition at 3 µg/mL [1]: 100%

CN1C(=O)c2cccnc2N(C2CC2)c2ncccc21 [Example 47]
inhibition at 10 µg/mL (HIV-1 RT): 100% | inhibition at 3 µg/mL [1]: 100%
